Values of other authors, collected in US9084671B2, “Methods of forming a micronized peptide coated stent” (ABBOTT CARDIOVASCULAR SYSTEMS INC., priority 2002, dated 2015).

Settings: stated as a property of the highly cationic guanidinium peptide; no method given

heptaarginine [heptamer of L-arginine]
pKa: 13.2
